Experimental data taken from patent US4471131A, “Novel silyl esters of N-phosphonomethylglycine” (Monsanto Company, priority 1983, dated 1984).

What was measured:
Experiment in all cases: post-emergence herbicidal activity, greenhouse
Assay type in all cases: in vivo
Cocklebur = system: Cocklebur
How it was run: (§1)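 Greenhouse-grown seedlings in soil pans; post-emergence atomizer spray at 2–3 weeks; injury against controls observed twice, near weeks 2 and 4.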

Large Crabgrass = details: Table III, formulated in anhydrous tetrahydrofuran
How it was run: as §1

Yellow Nutsedge = details: Table II
How it was run: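 Plants grown from seed or vegetative propagules in topsoil pans on a greenhouse sand bench, watered from below, were atomizer-sprayed at two to three weeks of age. The spray carried about 0.4% by weight emulsifier. Injury relative to unsprayed control pans was scored approximately two and four weeks after treatment.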

Common Lambsquarters = system: Common Lambsquarters
How it was run: as §1

Downy Brome = system: Downy Brome
How it was run: as §1

Hemp Sesbania = details: Table III, formulated in anhydrous tetrahydrofuran
How it was run: as §1

Johnsongrass = details: Table II
How it was run: as §1

Velvetleaf = system: Velvetleaf
How it was run: as §1

[1] = Table II, 2 WAT, 5.6 kg/h, formulated in anhydrous tetrahydrofuran
[2] = Table II, 2 WAT, 11.2 kg/h, formulated in anhydrous tetrahydrofuran
[3] = Table II, 4 WAT, 11.2 kg/h, formulated in anhydrous tetrahydrofuran
[4] = Table III, 2 WAT, 1.1 kg/h, formulated in anhydrous tetrahydrofuran
[5] = Table III, 2 WAT, 5.6 kg/h, formulated in anhydrous tetrahydrofuran
[6] = Table III, 2 WAT, .28 kg/h, formulated in anhydrous tetrahydrofuran
[7] = Table III, 4 WAT, 5.6 kg/h, formulated in anhydrous tetrahydrofuran
[8] = 2 WAT, 5.6 kg/h, formulated in anhydrous tetrahydrofuran
[9] = 2 WAT, 11.2 kg/h, formulated in anhydrous tetrahydrofuran
[10] = 4 WAT, 11.2 kg/h, formulated in anhydrous tetrahydrofuran

CC(C)(C)[Si](OP(=O)(O)CNCC(=O)O)(c1ccccc1)c1ccccc1 [Ex. 5, Glycine, N-((([(1,1-Dimethylethyl)Diphenylsilyl]oxy)-Hydroxyphosphinyl)-Methyl)-,]
1 (25-49% inhibition): Plant Response Index (B) (Cocklebur; [1]) | Plant Response Index (B) (Cocklebur; [2]) | Plant Response Index (B) (Cocklebur; Table II, 4 WAT, 5.6 kg/h) | Plant Response Index (B) (Cocklebur; [3]) | Plant Response Index (B) (Cocklebur; [4]) | Plant Response Index (B) (Cocklebur; [6]) | Plant Response Index (T) (Large Crabgrass; 2 WAT, 5.6 kg/h) | Plant Response Index (T) (Large Crabgrass; 4 WAT, 5.6 kg/h) | Plant Response Index (G) (Yellow Nutsedge; 2 WAT, 11.2 kg/h) | Plant Response Index (G) (Yellow Nutsedge; 4 WAT, 5.6 kg/h) | Plant Response Index (E) (Common Lambsquarters; Table II, 2 WAT, 5.6 kg/h) | Plant Response Index (E) (Common Lambsquarters; Table II, 2 WAT, 11.2 kg/h) | Plant Response Index (E) (Common Lambsquarters; [7]) | Plant Response Index (I) (Johnsongrass; 2 WAT, 11.2 kg/h) | Plant Response Index (I) (Johnsongrass; 4 WAT, 5.6 kg/h) | Plant Response Index (C) (Velvetleaf; Table II, 2 WAT, 11.2 kg/h)
2 (50-74% inhibition): Plant Response Index (B) (Cocklebur; Table II, 2 WAT, 5.6 kg/h) | Plant Response Index (B) (Cocklebur; Table II, 2 WAT, 11.2 kg/h) | Plant Response Index (B) (Cocklebur; Table II, 4 WAT, 11.2 kg/h) | Plant Response Index (G) (Yellow Nutsedge; 4 WAT, 11.2 kg/h) | Plant Response Index (E) (Common Lambsquarters; Table II, 4 WAT, 11.2 kg/h) | Plant Response Index (I) (Johnsongrass; 4 WAT, 11.2 kg/h)
0 (0-24% inhibition): Plant Response Index (B) (Cocklebur; [5]) | Plant Response Index (B) (Cocklebur; [7]) | Plant Response Index (T) (Large Crabgrass; 2 WAT, 1.1 kg/h) | Plant Response Index (T) (Large Crabgrass; 2 WAT, .28 kg/h) | Plant Response Index (G) (Yellow Nutsedge; 2 WAT, 5.6 kg/h) | Plant Response Index (G) (Yellow Nutsedge; [8]) | Plant Response Index (G) (Yellow Nutsedge; [9]) | Plant Response Index (G) (Yellow Nutsedge; [10]) | Plant Response Index (E) (Common Lambsquarters; [1]) | Plant Response Index (E) (Common Lambsquarters; [2]) | Plant Response Index (E) (Common Lambsquarters; Table II, 4 WAT, 5.6 kg/h) | Plant Response Index (E) (Common Lambsquarters; [3]) | Plant Response Index (E) (Common Lambsquarters; [4]) | Plant Response Index (E) (Common Lambsquarters; [5]) | Plant Response Index (E) (Common Lambsquarters; [6]) | Plant Response Index (J) (Downy Brome; Table II, 2 WAT, 5.6 kg/h) | Plant Response Index (J) (Downy Brome; [1]) | Plant Response Index (J) (Downy Brome; Table II, 2 WAT, 11.2 kg/h) | Plant Response Index (J) (Downy Brome; [2]) | Plant Response Index (J) (Downy Brome; Table II, 4 WAT, 5.6 kg/h) | Plant Response Index (J) (Downy Brome; Table II, 4 WAT, 11.2 kg/h) | Plant Response Index (J) (Downy Brome; [3]) | Plant Response Index (J) (Downy Brome; [4]) | Plant Response Index (J) (Downy Brome; [5]) | Plant Response Index (J) (Downy Brome; [6]) | Plant Response Index (J) (Downy Brome; [7]) | Plant Response Index (R) (Hemp Sesbania; 2 WAT, 1.1 kg/h) | Plant Response Index (R) (Hemp Sesbania; 2 WAT, 5.6 kg/h) | Plant Response Index (R) (Hemp Sesbania; 2 WAT, .28 kg/h) | Plant Response Index (R) (Hemp Sesbania; 4 WAT, 5.6 kg/h) | Plant Response Index (I) (Johnsongrass; 2 WAT, 5.6 kg/h) | Plant Response Index (I) (Johnsongrass; [8]) | Plant Response Index (I) (Johnsongrass; [9]) | Plant Response Index (I) (Johnsongrass; [10]) | Plant Response Index (C) (Velvetleaf; Table II, 2 WAT, 5.6 kg/h) | Plant Response Index (C) (Velvetleaf; [1]) | Plant Response Index (C) (Velvetleaf; [2]) | Plant Response Index (C) (Velvetleaf; Table II, 4 WAT, 5.6 kg/h) | Plant Response Index (C) (Velvetleaf; Table II, 4 WAT, 11.2 kg/h) | Plant Response Index (C) (Velvetleaf; [3]) | Plant Response Index (C) (Velvetleaf; [4]) | Plant Response Index (C) (Velvetleaf; [5]) | Plant Response Index (C) (Velvetleaf; [6]) | Plant Response Index (C) (Velvetleaf; [7])
